This is an account of results in PMC11396746, “Stability Evaluation and Pharmacokinetic Profiling of Vepdegestrant in Rodents Using Liquid Chromatography–Tandem Mass Spectrometry” (Molecules, 2024).

Data set [1] can be described thus: Metabolic stability in mouse liver microsomes. In kind it is in vitro ADME. The conditions noted are these: 60 min, 1 μM, with NADPH. The method, then: The metabolic stability of vepdegestrant was evaluated using liver microsomes obtained from mice, rats, dogs, and humans. Vepdegestrant was dissolved in DMSO to prepare a stock solution with a concentration of 0.1 mM. Microsomes (25 µL) were spiked into PBS (440 µL) and pre-incubated for 5 min. After pre-incubation, vepdegestrant stock solution (5 µL) was added, followed by an NADPH regenerating system (27 µL) to initiate the reaction. The composition of the reaction mixture was as follows: Vepdegestrant (final concentration 1 µM), mouse, rat, dog, human liver microsomes (protein concentration: 1 mg/mL), NADPH regenerating system (final concentrations: 1.3 mM NADP^+, 3.3 mM glucose-6-phosphate, 0.4 U/mL glucose-6-phosphate dehydrogenase, and 3.3 mM magnesium chloride), and PBS (pH 7.4). At 5, 15, 30, and 60 min after starting the reaction, aliquots (50 µL) were taken and added to ice-cold ACN with an IS (200 µL) to terminate the reaction. For the zero-time samples, aliquots were taken before adding NADPH. Subsequently, the mixture was vigorously mixed for 10 min and centrifuged at 17,054 g under 25 °C for 10 min. For analysis, 5 µL of the supernatant was injected into the HPLC-MS/MS system. In addition, the stability of vepdegestrant in rat liver microsomes was assessed in the absence of NADPH or NADPH and microsomes (PBS only). […]
A general note: Liver microsomes are vesicles of endoplasmic reticulum, rich in cytochrome P450 enzymes.

Data set [2] is described as follows: pH stability in buffer solutions (pH 2-10) and PBS pH 7.4. The conditions noted are these: for vepdegestrant remaining: 2 h, 0.1 µg/mL. In kind it is physicochemical. The protocol:
The physicochemical stability of vepdegestrant was determined using various pH buffers (pH 2.0–10.0) and plasma and microsomes.
A solution of vepdegestrant in methanol (10 µL) was added to buffer solutions at pH 2, 4, 6, 8, and 10 or pH 7.4 PBS (490 µL), yielding a final concentration of 0.1 µg/mL, and incubated at 37 °C, with 100 rpm in a water bath. At 0, 0.5, 1, and 2 h post-incubation, the incubation mixture (50 µL) was transferred to microtubes containing ice-cold ACN solution (200 µL) with IS to terminate the reaction. The mixture was vortexed thoroughly for 10 min. Subsequently, the supernatant (100 µL) was taken, and 5 µL was injected for HPLC-MS/MS analysis.

A short description of data set [3]: Adsorption investigation after pH stability test (microtube emptied, ACN added, vepdegestrant recovered). In kind it is physicochemical. The protocol:
The half-lives of vepdegestrant at pH values of 2, 4, 6, 7.4, 8, and 10 were 7.35, 0.77, 0.40, 0.50, 0.38, and 0.60 h, respectively. Sun et al. reported that the thalidomide ligand, a cereblon-targeting moiety of PROTAC, was rapidly degraded in phosphate-buffered saline (PBS; pH 7.4). The binder in vepdegestrant contained lenalidomide, a CRBN ligand with a chemical structure similar to that of thalidomide. In addition, Chen et al. reported that the glutarimide ring of lenalidomide is cleaved and degraded through non-enzymatic hydrolysis in aqueous solutions and hepatocytes at physiological pH [24]. However, this instability might be attributed to the adsorption of vepdegestrant onto the surfaces of experimental containers such as microtubes. A high proportion of organic solvent can prevent vepdegestrant from binding to the sample vial surface, and the possibility of adsorption exists because a buffer solution was used in this study. To investigate adsorption, after the pH stability test was completed, the incubation mixture was completely emptied, and ACN was added and thoroughly mixed. LC-MS/MS analysis includes MRM transitions for the expected hydrolysis product i.e., m/z 742.3 → 356.3, to detect the presence of degradation products. […] In contrast, hydrolysis may play a significant role at pH 10. Based on these findings, future studies should consider the selection of container materials and the use of organic solvents to minimize vepdegestrant adsorption.

Data set [4] in a line: Plasma protein binding (PPB) using a rapid equilibrium dialysis device. The data set is classed as in vitro ADME. The protocol: Low plasma stability was predicted based on pH stability results. […] In addition, we evaluated the plasma protein binding (PPB) of vepdegestrant using a rapid equilibrium dialysis device. However, the concentration of vepdegestrant in the buffer was below the quantification limit, making it impossible to determine an accurate binding ratio. This phenomenon persisted even when the administered concentration was increased from 2 to 10 µg/mL or when the plasma was diluted up to 100-fold. […] Furthermore, the recovery of vepdegestrant in the plasma after a 4-h incubation was greater than 85%. The unrecovered fraction may result from nonspecific binding to the device and membrane. Further studies should be conducted using alternative methods.
(In general: Equilibrium dialysis compares concentrations on both sides of a semipermeable membrane.)

In general, half-life refers to the time in which the quantity being followed falls by half. Higher therefore signals slow loss. What is called fraction unbound is free concentration divided by total concentration. As for `O=C1CC[C@H](N2Cc3cc(N4CCN(CC5CCN(c6ccc([C@@H]7c8ccc(O)cc8CC[C@@H]7c7ccccc7)cc6)CC5)CC4)ccc3C2=O)C(=O)N1` [vepdegestrant, Vepdegestrant], the “remaining percentage of unconverted vepdegestrant” value in data set [1] stood at 106%. Moreover, the half-life at 0.1 µg/mL in data set [2] (PBS pH 7.4, pH 7.4 (PBS), 37 °C) is 30 min; in data set [2] (pH 2 buffer solution, pH 2, 37 °C) it was 441 min; in data set [2] (pH 4 buffer solution, pH 4, 37 °C), 46.2 min; in data set [2] (pH 6 buffer solution, pH 6, 37 °C), 24 min; in data set [2] (pH 8 buffer solution, pH 8, 37 °C), 22.8 min; in data set [2] (pH 10 buffer solution, pH 10, 37 °C) it was 36 min. For the same molecule, the vepdegestrant remaining in data set [2] (pH 2 buffer, 37 °C) is recorded as 82.6%; in data set [2] (pH 4–10 buffers, 37 °C) it was 2.25–12.8%. Besides, the “recovered vepdegestrant percentage (adsorbed to microtube, recovered with ACN)” value in data set [3] (pH 2, after pH stability test) is listed as 21.8%; in data set [3] (pH 4, after pH stability test), 108.9%; in data set [3] (pH 6, after pH stability test), 105.1%; in data set [3] (pH 7.4, after pH stability test) it was 72.6%; in data set [3] (pH 8, after pH stability test), 63.9%; in data set [3] (pH 10, after pH stability test), 27.7%. Moreover, the recovery at 4 h in data set [4] (plasma in a rapid equilibrium dialysis device, after 4-h incubation in rapid equilibrium dialysis device, read-out: recovery of vepdegestrant in the plasma) was more than 85%. Also, the fraction unbound at 4 h in data set [4] (plasma, calculated assuming buffer concentration at the lowest quantifiable limit, actual PPB likely higher) is 0.001.
